Measured values taken from patent US11000535B2, “Anticancer composition and use thereof” (KAOHSIUNG MEDICAL UNIVERSITY, priority 2015, dated 2021).
≈ marks a conversion by molar mass, not a printed value.

Assays:
[1] = test system: c-Myc protein; experiment: c-Myc protein expression by immunoblotting, HL60; type: cell-based, human; settings: HL60 cells, 0.1 mg/mL
Experimental: Human prostate cancer cell line PC-3 and human promyelocytic leukemia cell line HL-60 were cultured in Gibco BRL company RPMI (Roswell Park Memorial Institute) 1640's medium.
Cells or xenograft tumors were harvested with RIPA lysis buffer (50 mM Tris (pH 7.5), 150 mM NaCl, 1% Triton X-100, 0.1% sodium dodecyl sulfate (SDS), 0.5% sodium deoxycholate, supplemented with protease and phosphatase inhibitors (1 mM Phenylmethanesulfonyl Fluoride (PMSF), […], […] Tosyllysine Chloromethyl Ketone (TLCK), […] Tosyl phenylalanyl chloromethyl ketone (TPCK), […] aprotinin, 1 mM sodium fluoride (NaF), 5 mM sodium pyrophosphate (NaPPi) and 10 mM sodium orthovanadate (Na3VO4).
Protein lysates were quantified and separated on SDS-PAGE gel, and immunoblotting was carried out.

[2] = test system: human glycine N-methyltransferase promoter; experiment: GNMT promoter-driven luciferase reporter assay in H7GPL cells; type: cell-based; settings: H7GPL luciferase
Experimental: Please refer to FIG. 1, which illustrates the configuration of pLV-GNMTpLuc plasmid. HEK293T cells were cotransfected with a packaging plasmid-pCMV-ΔR8.91, a VSV-G envelope expressing plasmid-pMD.G and pLV-GNMTpLuc using TurboFect™ Reagent (Fermentas, Hanover, Md.). One resultant colony was picked, amplified and denominated as H7GPL (HuH-7-GNMT promoter-Luciferase). The relative luciferase activity (RLA) was calculated as “activity of luciferase/intensity of alamarBlue fluorescence”. The fold changes in GNMT promoter induction was calculated as “RLA of drug/RLA of solvent control”. Compounds with the ability to activate human glycine N-methyltransferase promoter in H7GPL could serve as a citeria for screening drugs.
Please refer to FIG. 2, which illustrates the luciferase activity in a screening platform. Previously, 26 FDA approved drugs were identified that can reverse the gene expression signature of HCC. We obtained 26 drugs. H7GPL cells were seeded in 96-well plates for 18 hours and then were treated with these 26 drugs and solvent control for an extra 24 hours.
In the initial screening, when (individual luciferase activity−average luciferase activity of all hits)/standardized Z scores of all samples is greater than 1.5, it means the compound has the capability of enhancing the GNMT reporter activity.
Huh7 cells were infected with this virus and selected with puromycin-containing medium. One resultant colony was picked, amplified and denominated as H7GPL (Huh7 GNMT promoter-luciferase). The cell lysate of H7GPL was used for luciferase activity measurement using the Luciferase Assay System (Promega).
For primary screening, H7GPL cells seeded in 96-well plates were treated for 24 h with individual drugs at a concentration of 2 mg/mL for crude extracts and 0.2 mg/mL for pure compounds and then were lysed for the luciferase activity assay using the Luciferase Assay System (Promega, Madison, Wis., USA).
Reporter activity for each well was transformed to the Z score by using data from all assay plates.
Then, hits of primary screening were sorted by Z score ≥1.5 and used for secondary screening.
And then placed in the above-described culture plate H7GPL cell replication, and after the disposal of seized goods in those 20 hours, the company added AbD serotec Reagent (Oxford, UK), further cultured for 4 hours.
The cytotoxicity was measured according to the manufacturer's recommendation for assessing the reporter gene.
Drugs that induced GNMT promoter activity ≥1.5-fold were considered as hits of the secondary screen with the capability of enhancing the activity of GNMT.

[3] = test system: SK-HEP-1 cells; experiment: alamarBlue cell viability, SK-HEP-1; type: cell-based, human
Source text: (§1) Next, we analyzed the effect of PGG on cell proliferation in different liver cancer cell lines, including Huh7, Hep3B (ATCC-No 8064), HepG2 (ATCC HB-8065), SK-HEP-1 (ATCC HTB-52), Mahlavu and HepG2 (ATCC HB-8065).
(§2) Please refer to FIG. 18, which illustrates the effect of PGG on cell proliferation in different liver cancer cell lines, wherein the numeral 1 denotes Huh7 cells, the numeral 2 denotes Hep3B cells, the numeral 3 denotes SK-HEP-1 cells, the numeral 4 denotes Mahlavu cells, and the numeral 5 denotes HepG2 cells. And cell viability was determined by the alamarBlue® viability assay. IC50 values of PGG in each cell line are shown as follows: Huh7 cells 0.03 mg/mL, Hep3B cells 0.07 mg/mL, SK-HEP-1 cells, Mahlavu cells and HepG2 0.10 mg/mL dose-dependent.
(§3) Human liver cancer cell lines Huh7, Hep G2, Hep 3B, SK-HEP-1, Mahlavu and embryonic kidney cell line HEK-293T all were cultured in Dulbecco's Modified Eagle's Medium (DMEM) (Gibco BRL, Grand Island, N.Y., USA) with 10% heat-inactivated fetal bovine serum (HyClone, Logan, Utah, USA), penicillin (100 U/mL), streptomycin ([…]), nonessential amino acids (0.1 mM/L) and L-glutamine (2 mM/L) in a humidified incubator with 5% CO2.

[4] = test system: Huh7 cells (shLacZ, shGNMT, shMyc, c-Myc overexpression); experiment: PGG cytotoxicity in Huh7 cells with GNMT or c-Myc knock-out or c-Myc overexpression; type: cell-based, human
Experimental: As to the mechanism for how to suppress the growth of liver cancer cells by PGG, it was deduced that by virtue of induced GNMT expression by PGG it could interfere liver cancer cells. And it can be expected to have the claimed therapeutic effect of PGG by knocking out GNMT. With transformed Huh7 cells, shRNAs which have stable expressions of GNMT are evaluated.
Please refer to FIG. 40, which illustrates PGG affects the viability in different cell lines, wherein the numeral 1 denotes shLacZ, the numeral 2 denotes shGNMT-1, and the numeral 3 denotes shGNMT-2.
Please refer to FIG. 41, which illustrates the viability in Huh7 cells, wherein the numeral 1 denotes vehicle, the numeral 2 denotes c-Myc, the numeral 3 denotes solvent, and the numeral 4 denotes PGG.
Please refer to FIG. 44, which illustrates the viability in Huh7 cells, wherein the numeral 1 denotes shLacZ, and the numeral 2 denotes shMyc.
Stablized cells comprises Huh7-GFP, Huh7-GNMT, Huh7-shGNMT, Huh7-shLacZ and Huh7-shMyc, which are established via the lentivirus system and cultured in Dulbecco's Modified Eagle's Medium (DMEM) (Gibco BRL, Grand Island, N.Y., USA) with 1 μg/ml puromycin.

[5] = test system: Mahlavu cells; experiment: alamarBlue cell viability, Mahlavu; type: cell-based, human
Source text: as §1, §2, §3

[6] = test system: Huh7 cells; experiment: Antitumor effect of PGG, Huh7 xenograft; type: in vivo, nude mice; settings: 300 mpk, once a day for 10 days
Experimental: To test the antitumor effect of PGG in vivo, Huh7 cells were implanted subcutaneously into nude mice.
By the same token, mice were subcutaneously injected with Huh7 cells (2×10^6) in order to test the anti-tumor effect of PGG in vivo.
Tumor growth was monitored (every day or three times per week) by using Vernier caliper measurement of the length (L) and width (W) of the tumor.
Tumor volume (TV) was calculated by using the formula volume=(L×W^2)/2.

IC50 [3]: 100 µg/mL (≈ 106 µM)
SMILES: O=C(OC[C@H]1O[C@@H](OC(=O)c2cc(O)c(O)c(O)c2)[C@H](OC(=O)c2cc(O)c(O)c(O)c2)[C@@H](OC(=O)c2cc(O)c(O)c(O)c2)[C@@H]1OC(=O)c1cc(O)c(O)c(O)c1)c1cc(O)c(O)c(O)c1 [PGG, 1,2,3,4,6-penta-O-galloyl-β-D-glucopyranoside]
c-Myc protein expression [1]: inhibits c-Myc protein expression
GNMT promoter activity (in words) [2]: can induce GNMT promoter activity
cytotoxicity with ectopically overexpressed c-Myc ([4]; 0.1 mg/mL, FIG. 41): there is still cytotoxicity
cytotoxicity when GNMT is knocked out (shGNMT-1, shGNMT-2 vs shLacZ) ([4]; FIG. 40): no obvious improvement for the cytotoxicity caused by PGG
cell viability of Huh7-shMyc cells compared with Huh7-shLacZ cells ([4]; FIG. 44): only slightly decrease cell viability
IC50 [5]: 100 µg/mL (≈ 106 µM)
tumor growth (tumor volume) vs control group [6]: significant inhibition in tumor growth
